Test results as given in PubChem BioAssay (NCI).
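Five concentrations, 48 hours, 96-well plates. TGI is the concentration that stops growth completely.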

Legend:
Test in all cases: inhibition of tumour cell growth, NCI panel, 48 h
UO-31 renal = system: UO-31 renal
OVCAR-8 ovarian = system: OVCAR-8 ovarian
OVCAR-5 ovarian = system: OVCAR-5 ovarian
SK-MEL-2 melanoma = system: SK-MEL-2 melanoma
T-47D breast = system: T-47D breast
CAKI-1 renal = system: CAKI-1 renal
IGROV1 ovarian = system: IGROV1 ovarian
K-562 leukemia = system: K-562 leukemia
SW-620 colon = system: SW-620 colon
SF-295 CNS = system: SF-295 CNS
SNB-19 CNS = system: SNB-19 CNS
DU-145 prostate = system: DU-145 prostate
HT29 colon = system: HT29 colon
MCF7 breast = system: MCF7 breast
U251 CNS = system: U251 CNS
NCI-H460 lung = system: NCI-H460 lung
HL-60(TB) leukemia = system: HL-60(TB) leukemia
UACC-62 melanoma = system: UACC-62 melanoma
OVCAR-3 ovarian = system: OVCAR-3 ovarian
MALME-3M melanoma = system: MALME-3M melanoma
HOP-62 NSCLC = system: HOP-62 NSCLC
HCT-15 colon = system: HCT-15 colon
NCI-H226 lung = system: NCI-H226 lung
MDA-MB-435 = system: MDA-MB-435
RXF 393 renal = system: RXF 393 renal
MDA-MB-231 breast = system: MDA-MB-231 breast
COLO 205 colon = system: COLO 205 colon
NCI-H23 lung = system: NCI-H23 lung
LOX IMVI melanoma = system: LOX IMVI melanoma
SK-MEL-5 melanoma = system: SK-MEL-5 melanoma
SN12C renal = system: SN12C renal
EKVX NSCLC = system: EKVX NSCLC
HCT-116 colon = system: HCT-116 colon
NCI/ADR-RES ovarian = system: NCI/ADR-RES ovarian
SR leukemia = system: SR leukemia
NCI-H522 lung = system: NCI-H522 lung
M14 melanoma = system: M14 melanoma
PC-3 prostate = system: PC-3 prostate
HS 578T breast = system: HS 578T breast
SNB-75 CNS = system: SNB-75 CNS
786-0 renal = system: 786-0 renal
SK-OV-3 ovarian = system: SK-OV-3 ovarian
ACHN renal = system: ACHN renal
SF-539 CNS = system: SF-539 CNS
SK-MEL-28 melanoma = system: SK-MEL-28 melanoma
SF-268 CNS = system: SF-268 CNS
UACC-257 melanoma = system: UACC-257 melanoma
A549 NSCLC = system: A549 NSCLC
OVCAR-4 ovarian = system: OVCAR-4 ovarian
KM12 colon = system: KM12 colon
TK-10 renal = system: TK-10 renal
HOP-92 NSCLC = system: HOP-92 NSCLC
BT-549 breast = system: BT-549 breast
MOLT-4 leukemia = system: MOLT-4 leukemia
CCRF-CEM leukemia = system: CCRF-CEM leukemia
A498 renal = system: A498 renal
RPMI-8226 leukemia = system: RPMI-8226 leukemia

COc1cc2c(cc1OCCCCOc1cc3nc(C)nc(Cl)c3cc1OC)N=C[C@@H]1CCCN1C2=O
TGI (UO-31 renal): 4.73 µM
TGI (OVCAR-8 ovarian): 5.48 µM
TGI (OVCAR-5 ovarian): 5.3 µM
TGI (SK-MEL-2 melanoma): 3.6 µM
TGI (T-47D breast): 31.8 µM
TGI (CAKI-1 renal): 5.82 µM
TGI (IGROV1 ovarian): 4.6 µM
TGI (K-562 leukemia): 4.79 µM
TGI (SW-620 colon): 10.1 µM
TGI (SF-295 CNS): 6.76 µM
TGI (SNB-19 CNS): 33.1 µM
TGI (DU-145 prostate): 13.2 µM
TGI (HT29 colon): 10.2 µM
TGI (MCF7 breast): > 100 µM
TGI (U251 CNS): 6.88 µM
TGI (NCI-H460 lung): 45.6 µM
TGI (HL-60(TB) leukemia): 7.43 µM
TGI (UACC-62 melanoma): 2800 nM
TGI (OVCAR-3 ovarian): 4.7 µM
TGI (MALME-3M melanoma): 3.4 µM
TGI (HOP-62 NSCLC): 7.24 µM
TGI (HCT-15 colon): 8.78 µM
TGI (NCI-H226 lung): 4.07 µM
TGI (MDA-MB-435): 2970 nM
TGI (RXF 393 renal): 4.64 µM
TGI (MDA-MB-231 breast): 3.43 µM
TGI (COLO 205 colon): 45.4 µM
TGI (NCI-H23 lung): 3.37 µM
TGI (LOX IMVI melanoma): 3.04 µM
TGI (SK-MEL-5 melanoma): 3.4 µM
TGI (SN12C renal): 4.8 µM
TGI (EKVX NSCLC): 19.4 µM
TGI (HCT-116 colon): 5.59 µM
TGI (NCI/ADR-RES ovarian): 6.87 µM
TGI (SR leukemia): 1960 nM
TGI (NCI-H522 lung): 2120 nM
TGI (M14 melanoma): 3.5 µM
TGI (PC-3 prostate): 8.91 µM
TGI (HS 578T breast): 5.63 µM
TGI (SNB-75 CNS): 3.34 µM
TGI (786-0 renal): 12.4 µM
TGI (SK-OV-3 ovarian): > 100 µM
TGI (ACHN renal): 8.82 µM
TGI (SF-539 CNS): 4.2 µM
TGI (SK-MEL-28 melanoma): 5.54 µM
TGI (SF-268 CNS): 8.44 µM
TGI (UACC-257 melanoma): 4.04 µM
TGI (A549 NSCLC): 7.56 µM
TGI (OVCAR-4 ovarian): 11.1 µM
TGI (KM12 colon): 4.44 µM
TGI (TK-10 renal): 6.04 µM
TGI (HOP-92 NSCLC): 5.52 µM

CCOC(=O)C1C=C1C(C)(C)O (stereo unspecified)
TGI (UO-31 renal): > 10 µM
TGI (OVCAR-8 ovarian): > 10 µM
TGI (OVCAR-5 ovarian): > 10 µM
TGI (SK-MEL-2 melanoma): > 10 µM
TGI (BT-549 breast): > 10 µM
TGI (T-47D breast): > 10 µM
TGI (IGROV1 ovarian): > 10 µM
TGI (K-562 leukemia): > 10 µM
TGI (SW-620 colon): > 10 µM
TGI (SF-295 CNS): > 10 µM
TGI (SNB-19 CNS): > 10 µM
TGI (DU-145 prostate): > 10 µM
TGI (MOLT-4 leukemia): > 10 µM
TGI (HT29 colon): > 10 µM
TGI (MCF7 breast): > 10 µM
TGI (U251 CNS): > 10 µM
TGI (NCI-H460 lung): > 10 µM
TGI (HL-60(TB) leukemia): > 10 µM
TGI (OVCAR-3 ovarian): > 10 µM
TGI (MALME-3M melanoma): > 10 µM
TGI (HOP-62 NSCLC): > 10 µM
TGI (HCT-15 colon): > 10 µM
TGI (NCI-H226 lung): > 10 µM
TGI (CCRF-CEM leukemia): > 10 µM
TGI (MDA-MB-435): > 10000 nM
TGI (RXF 393 renal): > 10 µM
TGI (A498 renal): > 10 µM
TGI (NCI-H23 lung): > 10 µM
TGI (LOX IMVI melanoma): > 10 µM
TGI (SK-MEL-5 melanoma): > 10 µM
TGI (SN12C renal): > 10 µM
TGI (EKVX NSCLC): > 10 µM
TGI (SR leukemia): > 10000 nM
TGI (M14 melanoma): > 10 µM
TGI (PC-3 prostate): > 10 µM
TGI (HS 578T breast): > 10 µM
TGI (SNB-75 CNS): > 10 µM
TGI (RPMI-8226 leukemia): > 10 µM
TGI (786-0 renal): > 10 µM
TGI (SK-OV-3 ovarian): > 10 µM
TGI (ACHN renal): > 10 µM
TGI (SF-539 CNS): > 10 µM
TGI (SK-MEL-28 melanoma): > 10 µM
TGI (SF-268 CNS): > 10 µM
TGI (UACC-257 melanoma): > 10 µM
TGI (A549 NSCLC): > 10 µM
TGI (KM12 colon): > 10 µM
TGI (TK-10 renal): > 10 µM
TGI (HOP-92 NSCLC): > 10 µM
